Earlier results, collected in patent US20100063116A1 (priority 2006, published 2010).
Read-outs that look alike come from different tables or passages of the source.

Legend:
[1] = tested on: D2 subfamily of dopamine receptors; settings: in vitro
[2] = tested on: dopamine receptors in the striatum and the substantia nigra; settings: electrophysiologic studies in animals
[3] = tested on: plasma proteins
[4] = tested on: patients with early Parkinson's disease
[5] = tested on: patients with early Parkinson's disease; remark: listed apart in the source
[6] = end of 6-month maintenance, titrated up to 4.5 mg/day in three divided doses

SMILES: CCCN[C@@H]1CCc2nc(N)sc2C1 [Pramipexole, pramipexole]
- intrinsic activity at the D2 subfamily of dopamine receptors [1]: full intrinsic activity
- effect on striatal neuronal firing rates [2]: influences striatal neuronal firing rates
- volume of distribution (CV=20%): about 500 L
- renal clearance (CV=25%): approximately 400 mL/min
- dose recovered in urine (almost all as unchanged drug): 90%
- clearance in dialysis patients (dialysis patients): extremely low
- terminal half-life (elderly volunteers): about 12 hours
- metabolites in plasma or urine (human, in vivo): no metabolites have been identified
- pharmacokinetics in early versus advanced Parkinson's disease patients (human, in vivo): comparable
- decrease of clearance compared with healthy volunteers (moderate renal impairment (creatinine clearance approximately 40 mL/min)): about 60%
- time to steady-state concentrations (of dosing): ≤ 2 days
- absolute bioavailability (oral): greater than 90%
- linearity of pharmacokinetics (over the clinical dosage range): linear pharmacokinetics
- decrease of clearance compared with healthy volunteers (severe renal impairment (creatinine clearance approximately 20 mL/min)): about 75%
- effect of food on the extent of absorption (taken with food): does not affect
- terminal half-life (young healthy volunteers): about 8 hours
- bound to plasma proteins [3]: about 15%
- mean improvement from baseline on the UPDRS part II (ADL) total score [4, 6]: 1.9
- mean improvement from baseline on the UPDRS part III total score [4, 6]: 5.0
- beginning of statistically significant difference versus placebo, UPDRS part II ([4]; maximum dose 0.75 mg/day): 2 week
- beginning of statistically significant difference versus placebo, UPDRS part III ([4]; maximum dose 1.5 mg/day): 3 week
- dose-response relationship ([5]; 1.5 mg, 3.0 mg, 4.5 mg, or 6.0 mg per day): No dose-response relationship was demonstrated
- mean improvement from baseline on the UPDRS part III total score ([5]; end of 4-week maintenance, fixed doses 1.5-6.0 mg per day): 4.2
- mean improvement from baseline on the UPDRS part II total score ([5]; end of 4-week maintenance, fixed doses 1.5-6.0 mg per day, regardless of dose group): 1.8
- benefit of 3 mg, 4.5 mg and 6 mg per day beyond 1.5 mg/day ([5]; fixed-dose study in early Parkinson's disease patients): not shown to provide any significant benefit
